Here are results for 19 compounds from US20040204463A1, “N-aryl-2-oxazolidinone-5-carboxamides and their derivatives” (priority 2003, published 2004).

≈ marks a conversion by molar mass, not a printed value. Where a name gives a salt, the structure may show the parent alone. Read-outs that look alike come from different tables or passages of the source.

One assay relates to SAUR 9213. Kind of assay: In vitro MIC by standard agar dilution method, SAUR 9213. Type of assay: cell-based, S. aureus. The note with it: Staphylococcus aureus, read-out: SAUR 9213 MIC (Minimum Inhibitory Concentration). The text has this: (§1) The oxazolidinone antibacterial agents of this invention have useful activity against a variety of organisms. The in vitro activity of compounds of this invention can be assessed by standard testing procedures such as the determination of minimum inhibitory concentration (MIC) by agar dilution as described in “Approved Standard. Methods for Dilution Antimicrobial Susceptibility Tests for Bacteria That Grow Aerobically”, 3rd. ed., published 1993 by the National Committee for Clinical Laboratory Standards, Villanova, Pa., USA.
(§2) The in vitro MICs of test compounds were determined by a standard agar dilution method. A stock drug solution of each analog was prepared in the preferred solvent, usually DMSO: H2O (1:3). Serial 2-fold dilutions of each sample are made using 1.0 ml aliquots of sterile distilled water. To each 1.0 ml aliquot of drug was added 9 ml of molten Mueller Hinton agar medium. The drug-supplemented agar was mixed, poured into 15×100 mm petri dishes, and allowed to solidify and dry prior to inoculation.
(§3) Vials of each of the test organisms are maintained frozen in the vapor phase of a liquid nitrogen freezer. Test cultures are grown overnight at 35° C. on the medium appropriate for the organism. Colonies are harvested with a sterile swab, and cell suspensions are prepared in Trypticase Soy broth (TSB) to equal the turbidity of a 0.5 McFarland standard. A 1:20 dilution of each suspension was made in TSB. The plates containing the drug supplemented agar are inoculated with a 0.001 ml drop of the cell suspension using a Steers replicator, yielding approximately 10^4 to 10^5 cells per spot. The plates are incubated overnight at 35° C.
(§4) Following incubation the Minimum Inhibitory Concentration (MIC μg/ml), the lowest concentration of drug that inhibits visible growth of the organism, was read and recorded.

For another assay, the system named is SPNE 9912. Kind of assay: In vitro MIC by standard agar dilution method, SPNE 9912. To be noted: read-out: SPNE 9912 MIC (Minimum Inhibitory Concentration). The class given is cell-based.
Source text: as §1, §2, §3, §4

In a further assay the test system is HINF 30063. The experiment in a line: In vitro MIC by standard agar dilution method, HINF 30063. Type of assay: cell-based, H. influenzae. The note with it: Haemophilus influenzae, read-out: HINF 30063 MIC (Minimum Inhibitory Concentration).
Source text: as §1, §2, §3, §4
In general terms: In agar dilution, organisms are placed on agar that contains the substance at set levels.

The mark [1] stands for this setting: agar dilution, Mueller Hinton agar, incubated overnight at 35° C., lowest concentration that inhibits visible growth.

For `C#CCCCC(=O)N1CCN(c2ccc(N3C[C@H](CNC(C)=O)OC3=O)cc2F)CC1` [Compound 4, N-({(5S)-3-[3-Fluoro-4-(4-hex-5-ynoylpiperazin-1-yl)phenyl]-2-oxo-1,3-oxazolidin-5-yl}methyl)acetamide], the MIC stood at 4 µg/mL (≈ 9.29 µM) with SAUR 9213, 1 µg/mL (≈ 2.32 µM) with SPNE 9912 and 64 µg/mL (≈ 149 µM) in the assay on HINF 30063.
On to `CC(=O)NC[C@H]1CN(c2ccc(N3CCN(C(=O)CCCC#Cc4cccc(CN)c4)CC3)c(F)c2)C(=O)O1` [Compound 6, N-({(5S)-3-[4-(4-{6-[3-(aminomethyl)phenyl]hex-5-ynoyl}piperazin-1-yl)-3-fluorophen-yl]-2-oxo-1,3-oxazolidin-5-yl}methyl)acetamide], for which the MIC with SAUR 9213 (setting [1]) turned out to be 2 µg/mL (≈ 3.73 µM); with SPNE 9912 (setting [1]) it was 1 µg/mL (≈ 1.87 µM); in the assay on HINF 30063 (setting [1]), 16 µg/mL (≈ 29.9 µM).
The corresponding values for `CC(=O)NC[C@H]1CN(c2ccc(N3CCN(C(=O)CCCC#Cc4ccc(O)cc4)CC3)c(F)c2)C(=O)O1` [Compound 7, N-{[(5S)-3-(3-Fluoro-4-{4-[6-(4-hydroxyphenyl)hex-5-ynoyl]piperazin-1-yl}phenyl)-2-oxo-1,3-oxazolidin-5-yl]methyl}acetamide] are 4 µg/mL (≈ 7.65 µM), 1 µg/mL (≈ 1.91 µM) and over 64 µg/mL.
Taken in the same sequence, the figures for `C#CCCC(=O)N1CCN(c2ccc(N3C[C@H](CNC(C)=O)OC3=O)cc2F)CC1` [Compound 8, N-[((5S)-3-{3-fluoro-4-[4-(4-pentynoyl)-1-piperazinyl]phenyl}-2-oxo-1,3-oxazolidin-5-yl)methyl]acetamide] were 4 µg/mL (≈ 9.6 µM), under 0.5 µg/mL and over 32 µg/mL.
Taken in the same sequence, the figures for `CC(=O)NC[C@H]1CN(c2ccc(N3CCN(CC#Cc4ccccc4)CC3)c(F)c2)C(=O)O1` [Compound 9, N-[((5S)-3-{3-fluoro-4-[4-(3-phenylprop-2-ynyl)piperazin-1-yl]phenyl}-2-oxo-1,3-oxazolidin-5-yl)methyl]acetamide] were 4 µg/mL (≈ 8.88 µM), 2 µg/mL (≈ 4.44 µM) and 16 µg/mL (≈ 35.5 µM).
`CC(=O)NC[C@H]1CN(c2cc(F)c(N3CCN(C(=O)CCCC#Cc4ccc(CN)cc4)CC3)c(F)c2F)C(=O)O1` [Compound 10, N-({(5S)-3-[4-(4-{6-[4-(aminomethyl)phenyl]hex-5-ynoyl}piperazin-1-yl)-2,3,5-trifluorophenyl]-2-oxo-1,3-oxazolidin-5-yl}methyl)acetamide]: the figures for the MIC with SAUR 9213 (setting [1]), in the assay with SPNE 9912 (setting [1]) and in the assay with HINF 30063 (setting [1]) were 4 µg/mL (≈ 7 µM), 2 µg/mL (≈ 3.5 µM) and 32 µg/mL (≈ 56 µM), respectively.
Taken in the same sequence, the figures for `CC(=O)NC[C@H]1CN(c2cc(F)c(N3CCN(C(=O)CCCC#Cc4cccc(CN)c4)CC3)c(F)c2F)C(=O)O1` [Compound 11, N-({(5S)-3-[4-(4-{6-[3-(aminomethyl)phenyl]hex-5-ynoyl}piperazin-1-yl)-2,3,5-trifluorophenyl]-2-oxo-1,3-oxazolidin-5-yl}methyl)acetamide] were 4 µg/mL (≈ 7 µM), 2 µg/mL (≈ 3.5 µM) and 16 µg/mL (≈ 28 µM).
Taken in the same sequence, the figures for `CC(=O)NC[C@H]1CN(c2ccc(N3CCN(C(=O)CCCC#Cc4ccc(/C(N)=N/O)cc4)CC3)c(F)c2)C(=O)O1.Cl` [Compound 12, N-[((5S)-3-{4-[4-(6-{4-[(Z)-amino(hydroxyimino)methyl]-phenyl}hex-5-ynoyl)piperazin-1-yl]-3-fluorophenyl}-2-oxo-1,3-oxazolidin-5-yl)methyl]-acetamide hydrochloride] were 16 µg/mL, 2 µg/mL and over 64 µg/mL.
Take `CC(=O)NC[C@H]1CN(c2ccc(N3CCN(C(=O)CCC#Cc4ccc(C[C@H](N)C(=O)O)cc4)CC3)c(F)c2)C(=O)O1` [Compound 13, 4-{5-[4-(4-{(5S)-5-[(acetylamino)methyl]-2-oxo-1,3-oxazolidin-3-yl}-2-fluorophenyl)piperazin-1-yl]-5-oxopent-1-ynyl}-L-phenylalanine]: the MIC is over 64 µg/mL in the assay on SAUR 9213, 64 µg/mL (≈ 110 µM) in the assay with SPNE 9912 and over 64 µg/mL in the assay with HINF 30063.
Take `CC(=O)NC[C@H]1CN(c2ccc(N3CCN(C(=O)CCCC#Cc4cccc(C#N)c4)CC3)c(F)c2)C(=O)O1` [Compound 14, N-{[(5S)-3-(4-{4-[6-(3-cyanophenyl)hex-5-ynoyl]piperazin-1-yl}-3-fluorophenyl)-2-oxo-1,3-oxazolidin-5-yl]methyl}acetamide]: the MIC is 8 µg/mL (≈ 15 µM) with SAUR 9213 (setting [1]), 2 µg/mL (≈ 3.76 µM) in the assay with SPNE 9912 (setting [1]) and over 64 µg/mL in the assay with HINF 30063 (setting [1]).
Taken in the same sequence, the figures for `CC(=O)NC[C@H]1CN(c2ccc(N3CCN(C(=O)CCCC#Cc4ccc(/C(C)=N/O)cc4)CC3)c(F)c2)C(=O)O1` [Compound 15, N-[((5S)-3-{3-fluoro-4-[4-(6-{4-[(1E)-N-hydroxyethan-imidoyl]-phenyl}hex-5-ynoyl)piperazin-1-yl]phenyl}-2-oxo-1,3-oxazolidin-5-yl)methyl]-acetamide, HCl salt] were over 16 µg/mL, 2 µg/mL and over 16 µg/mL.
Taken in the same sequence, the figures for `CCC(=O)NC[C@H]1CN(c2ccc(C3(C)CN(C(=O)CCCC#Cc4cccc(CN)c4)C3)cc2)C(=O)O1` [Compound 16, N-({(5S)-3-[4-(1-{6-[3-(aminomethyl)phenyl]hex-5-ynoyl}-3-methylazetidin-3-yl)phenyl]-2-oxo-1,3-oxazolidin-5-yl}methyl)propan-amide] were 16 µg/mL (≈ 31 µM), 2 µg/mL (≈ 3.87 µM) and 16 µg/mL (≈ 31 µM).
The corresponding values for `CC(=O)NC[C@H]1CN(c2ccc(N3CCN(C(=O)CCCC#Cc4ccc(C(C)=O)cc4)CC3)c(F)c2)C(=O)O1` [Compound 17, N-{[(5S)-3-(4-{4-[6-(4-acetylphenyl)hex-5-ynoyl]piperazin-1-yl}-3-fluorophenyl)-2-oxo-1,3-oxazolidin-5-yl]methyl}acetamide] are over 64 µg/mL, 2 µg/mL (≈ 3.65 µM) and over 64 µg/mL.
`CC(=O)NC[C@H]1CN(c2ccc(N3CCN(C(=O)CCCC#Cc4ccc(Cn5ccnc5)cc4)CC3)c(F)c2)C(=O)O1` [Compound 18, N-({(5S)-3-[3-fluoro-4-(4-{6-[4-(1H-imidazol-1-ylmethyl)phenyl]hex-5-ynoyl}piperazin-1-yl)phenyl]-2-oxo-1,3-oxazolidin-5-yl}methyl)acetamide]: the MIC with SAUR 9213 (setting [1]) is 16 µg/mL (≈ 27.3 µM); in the assay with SPNE 9912 (setting [1]), 2 µg/mL (≈ 3.41 µM); in the assay on HINF 30063 (setting [1]), over 64 µg/mL.
The corresponding values for `CNCc1ccc(C#CCCCC(=O)N2CCN(c3ccc(N4C[C@H](CNC(C)=O)OC4=O)cc3F)CC2)cc1` [Compound 19, N-[((5S)-3-{3-fluoro-4-[4-(6-{4-[(methylamino)methyl]phenyl}hex-5-ynoyl)piperazin-1-yl]phenyl}-2-oxo-1,3-oxazolidin-5-yl)methyl]acetamide] are 4 µg/mL (≈ 7.28 µM), 0.25 µg/mL (≈ 0.455 µM) and 32 µg/mL (≈ 58.2 µM).
The corresponding values for `CC(=O)NC[C@H]1CN(c2ccc(N3CCN(C(=O)CCC#Cc4ccc(N)cc4)CC3)c(F)c2)C(=O)O1` [Compound 20, N-{[(5S)-3-(4-{4-[5-(4-aminophenyl)pent-4-ynoyl]piperazin-1-yl}-3-fluorophenyl)-2-oxo-1,3-oxazolidin-5-yl]methyl}acetamide] are 4 µg/mL (≈ 7.88 µM), 2 µg/mL (≈ 3.94 µM) and 64 µg/mL (≈ 126 µM).
The corresponding values for `COC(=O)[C@@H](N)Cc1ccc(C#CCCC(=O)N2CCN(c3ccc(N4C[C@H](CNC(C)=O)OC4=O)cc3F)CC2)cc1` [Compound 21, methyl 4-{5-[4-(4-{(5S)-5-[(acetylamino)methyl]-2-oxo-1,3-oxazolidin-3-yl}-2-fluorophenyl)piperazin-1-yl]-5-oxopent-1-ynyl}-L-phenylalaninate] are 32 µg/mL (≈ 53.9 µM), 4 µg/mL (≈ 6.74 µM) and over 64 µg/mL.
`CC(=O)NC[C@H]1CN(c2ccc(N3CCN(C(=O)CCC#Cc4c[nH]c(=O)[nH]c4=O)CC3)c(F)c2)C(=O)O1` [Compound 22, N-{[(5S)-3-(4-{4-[5-(2,4-dioxo-1,2,3,4-tetrahydropyrimidin-5-yl)pent-4-ynoyl]piperazin-1-yl}-3-fluorophenyl)-2-oxo-1,3-oxazolidin-5-yl]methyl}acetamide]: the MIC in the assay on SAUR 9213 (setting [1]) turned out to be 32 µg/mL (≈ 60.8 µM); with SPNE 9912 (setting [1]) it was 4 µg/mL (≈ 7.6 µM); with HINF 30063 (setting [1]), 32 µg/mL (≈ 60.8 µM).
As to `CC(=O)NC[C@H]1CN(c2ccc(N3CCN(C(=O)CCCCC#Cc4ccc(CN)cc4)CC3)c(F)c2)C(=O)O1` [Compound 23, N-({(5S)-3-[4-(4-{7-[4-(aminomethyl)phenyl]hept-6-ynoyl}piperazin-1-yl)-3-fluorophenyl]-2-oxo-1,3-oxazolidin-5-yl}methyl)acetamide], the MIC is 4 µg/mL (≈ 7.28 µM) in the assay with SAUR 9213 (setting [1]), 0.25 µg/mL (≈ 0.455 µM) with SPNE 9912 (setting [1]) and 32 µg/mL (≈ 58.2 µM) with HINF 30063 (setting [1]).
